From PMC11662004 (Communications Chemistry, 2024)
Values joined by “and” are separate entries in the source; they are usually repeats but may differ in a detail not shown here. Identical values can stand only once. Like-named read-outs stand apart in the source and are kept apart here.

Target: T1, NgTet1 (Naegleria gruberi, UniProt D2W6T1)
T1 construct: His6-tagged full-length Naegleria gruberi NgTet1 (321 a. a.) protein with a thrombin cleavage site; made in house; host or cells: E. coli BL21(DE3)
T1 sequence (D2W6T1 1-321): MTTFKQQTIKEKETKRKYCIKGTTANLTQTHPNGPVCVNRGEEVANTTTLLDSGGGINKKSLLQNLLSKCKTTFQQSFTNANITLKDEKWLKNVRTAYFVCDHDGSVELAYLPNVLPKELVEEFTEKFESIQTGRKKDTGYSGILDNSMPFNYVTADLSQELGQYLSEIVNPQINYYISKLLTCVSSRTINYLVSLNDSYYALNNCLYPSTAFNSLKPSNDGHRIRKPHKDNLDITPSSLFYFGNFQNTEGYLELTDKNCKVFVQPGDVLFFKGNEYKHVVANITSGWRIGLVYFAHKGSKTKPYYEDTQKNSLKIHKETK
Experiment: biochemical
Settings: for IC50: 5 μM NgTet1, 50 μM 2OG; for normalised activity, %: NMR; for normalised activity: NgTet1, NMR, 2 independent replicates
Description: Activity was normalised against reactions containing vehicle (DMSO). […] AS data shown as the mean of three experimental replicates (n = 3; mean ± SD); ^1H NMR data plotted from two independent replicates (n = 2); tabulated data reported as the mean of two and three independent replicates for ^1H NMR and AS, respectively (n = 2–3, SD reported for n = 3). N. d.: not determined; AS: AlphaScreen.
All ^1H NMR spectra were recorded at 25 °C using D2O as a reference for internal deuterium lock on a Bruker Avance III 700 MHz equipped with an inverse TCI cryoprobe in 3 or 5 mm diameter tubes with a total sample volume of 160 or 565 μL, respectively. The water signal was reduced using Perfect Echo excitation sculpting suppression. Chemical shifts are reported in ppm relative to D2O (δH = 4.70 ppm).
NgTet1 was pre-incubated with inhibitor dilution series in DMSO-d6 at room temperature for 10 min (50 mM Tris-d11 [pH 7.5], 2% v/v DMSO-d6). Reactions were initiated by the addition of appropriate cofactors and DNA. […] The reactions were quenched by the addition of 9 mM NOG and 9 mM ZnCl2 in 90 mM Tris-d11 [pH 7.5] (20 μL) within the enzyme linear activity window (determined in Figure. S10). Samples were transferred to NMR tubes and subjected to ^1H NMR analysis. Data were processed as described above. Inhibition data was normalised to reactions containing vehicle only (1% v/v DMSO-d6) and fitted using “log(inhibitor) vs. response - Variable slope (four parameters)” non-linear regression model on GraphPad Prism 5.
Activity was normalised against reactions containing vehicle only (100% activity). Data is shown as the mean of 2 independent replicates (n = 2; […]
Fig. S10 Determination of linear NgTet1 enzymatic activity windows for inhibitor characterisation. a 1H NMR succinate detection time courses with no DNA, 5HC DNA (double- […]
complementary 5'-ACC AC5mC GGT GGT-3'). b AlphaScreen 5hmC detection time course using […]
courses shown. 1H NMR reaction conditions: 5 μM NgTet1, 2 mM sodium L-ascorbate, 100 μM […]
v/v D2O. DNA was added to a final concentration of 20 μM of double-stranded DNA. […]

In the case of `O=C(O)CNC(=O)C(=O)O` [NOG, N-oxalylglycine], the “potency reduced in the presence of non-substrate 5HC DNA” value (1H NMR, uncoupled 2OG turnover) is reported as 5 fold, the IC50 (2OG decarboxylation with 20 µM 5HC DNA, read-out: IC50, 5HC DNA, NMR) is reported as 23.4 µM and the IC50 (2OG decarboxylation with 20 µM 5mC DNA, read-out: IC50, 5mC DNA, NMR) is reported as 4.9 µM. The “normalised activity, %” value (5HC DNA, -Log[inhibitor] (M) 3) was 9.08% and 0%, the “normalised activity, %” value (5HC DNA, -Log[inhibitor] (M) 3.5) was 14.96% and 8.89% and the “normalised activity, %” value (5HC DNA, -Log[inhibitor] (M) 4) was 27.44% and 19.98%. For the same compound, the “normalised activity, %” value (5HC DNA, -Log[inhibitor] (M) 4.5) was 46.19% and 37.58%, the “normalised activity, %” value (5HC DNA, -Log[inhibitor] (M) 5) was 68.86% and 59.35% and the “normalised activity, %” value (5HC DNA, -Log[inhibitor] (M) 5.5) was 85.6% and 77.94%. The “normalised activity, %” value (5HC DNA, -Log[inhibitor] (M) 6) was 94.01% and 91.73%, the “normalised activity, %” value (5HC DNA, -Log[inhibitor] (M) 6.5) was 98.78% and 94.75% and the “normalised activity, %” value (5HC DNA, -Log[inhibitor] (M) 7) was 98.78% and 99.12%. For the same compound, the “normalised activity, %” value (5HC DNA, -Log[inhibitor] (M) 7.5) was 97.21% and 98.4%, the “potency improved relative to AS assay” value (5mC DNA substrate-saturating conditions, 1H NMR) was 40 fold and the “normalised activity, %” value (5mC DNA, -Log[inhibitor] (M) 2.47712) was 3.86% and 2.962%. The “normalised activity, %” value (5mC DNA, -Log[inhibitor] (M) 2.95424) was 3.763% and 4.321%, the “normalised activity, %” value (5mC DNA, -Log[inhibitor] (M) 3.43136) was 5.679% and 6.122% and the “normalised activity, %” value (5mC DNA, -Log[inhibitor] (M) 3.90849) was 9.059% and 9.958%. For the same compound, the “normalised activity, %” value (5mC DNA, -Log[inhibitor] (M) 4.38561) was 18.3792% and 18.5451%, the “normalised activity, %” value (5mC DNA, -Log[inhibitor] (M) 4.86273) was 32.2896% and 33.1008% and the “normalised activity, %” value (5mC DNA, -Log[inhibitor] (M) 5.33985) was 53.2739% and 54.7766%. The “normalised activity, %” value (5mC DNA, -Log[inhibitor] (M) 5.81697) was 75.7036% and 73.0834%, the “normalised activity, %” value (5mC DNA, -Log[inhibitor] (M) 6.29409) was 86.8413% and 87.2847% and the “normalised activity, %” value (5mC DNA, -Log[inhibitor] (M) 6.77) was 92.8024% and 96.8118%. For the same compound, the “normalised activity, %” value (5mC DNA, -Log[inhibitor] (M) 7.25) was 100.282% and 100.776%, the “normalised activity, %” value (5mC DNA, -Log[inhibitor] (M) 7.73) was 99.5779% and 101.189% and the “normalised activity, %” value (No DNA, -Log[inhibitor] (M) 2) was 1.894% and 2.62%. The “normalised activity, %” value (No DNA, -Log[inhibitor] (M) 2.47712) was 5.905% and 12.6681%, the “normalised activity, %” value (No DNA, -Log[inhibitor] (M) 3.43136) was 23.7146% and 37.124% and the “normalised activity, %” value (No DNA, -Log[inhibitor] (M) 3.90849) was 40.5302% and 59.4882%. For the same compound, the “normalised activity, %” value (No DNA, -Log[inhibitor] (M) 4.38561) was 74.4281% and 76.6397%, the “normalised activity, %” value (No DNA, -Log[inhibitor] (M) 4.86273) was 97.4209% and 83.0858% and the “normalised activity, %” value (No DNA, -Log[inhibitor] (M) 5.33985) was 104.499% and 99.5811%. The “normalised activity, %” value (No DNA, -Log[inhibitor] (M) 5.81697) was 103.384% and 101.173%, the “normalised activity, %” value (No DNA, -Log[inhibitor] (M) 6.29409) was 102.321% and 96.0908% and the IC50 (uncoupled 2OG decarboxylation, no DNA, read-out: IC50, No DNA, NMR) was 118 µM.
“5HC DNA: non-methylated DNA of the same sequence, 5'-ACC ACC GGT GGT-3', non-substrate (DNA ACCACCGGTGGT; DNA, backbone not given here)” was tested, and the “uncoupled 2OG decarboxylase activity relative to control” value (1.2 equivalents (6.17 μM) of ligand, no 5mC DNA substrate) was 188%, the normalised activity (-Log[inhibitor] (M) 3.77815) was 173.555% and 199.834% and the normalised activity (-Log[inhibitor] (M) 4.25527) was 239.054% and 238.734%. For the same compound, the normalised activity (-Log[inhibitor] (M) 4.73239) was 235.651% and 234.615%, the normalised activity (-Log[inhibitor] (M) 5.20951) was 188.852% and 186.764% and the normalised activity (-Log[inhibitor] (M) 5.68664) was 131.036% and 130.504%. The normalised activity (-Log[inhibitor] (M) 6.16376) was 99.9166% and 102.373%, the normalised activity (-Log[inhibitor] (M) 6.64088) was 99.5022% and 101.543% and the normalised activity (-Log[inhibitor] (M) 7.118) was 100.648% and 101.556%. The normalised activity (-Log[inhibitor] (M) 7.59512) was 99.7851% and 102.052% and the normalised activity (-Log[inhibitor] (M) 8.07224) was 101.874% and 100.284%.
